Patent publication US20020064511A1, “Water-soluble polymers for the reduction of dietary phosphate or oxalate absorption” (priority 1996, published 2002)

Assay: Complexation of phosphate in NaH2PO4 solution, Centricon 30 filtrate phosphorus by ICP
Type: binding
Description: In each of four tubes, 0.54 mL of this solution (0.19 mmol of monomer units) were mixed with 10 mL of 0.0207 M NaH2PO4 and appropriate amounts of HCl and NaOH to make solutions of pH 3, pH 4.5, pH 6, and pH 7.5. Tubes with the same pH were also prepared with 10 mL of 0.0207 M NaH2PO4and 0.50 mL of 1.5 M CaCO, (0.749 mmol). Control tubes were also prepared with the sodium phosphate solution and the adjustment of pH. All tubes were diluted to 12 mL with water. The tubes were agitated for one hour. The solutions were then placed in separate Centricon™ 30 molecular weight cutoff tubes and centrifuged for 30 minutes. The filtrate collected was analyzed for phosphorus by inductively coupled plasma spectroscopy.
In each of four tubes, 0.67 mL of this solution (0.18 mmol of monomer units) were mixed with 10 mL of 0.0207 M NaH2PO4 and appropriate amounts of HCl and NaOH to make solutions of pH 3, pH 4.5, pH 6, and pH 7.5. Tubes with the same pH were also prepared with 10 mL of 0.0207 M NaH2PO4 and 0.50 mL of 1.5 M CaCO3 (0.749 mmol). Control tubes were also prepared with the sodium phosphate solution and the adjustment of pH. All tubes were diluted to 12 mL with water. The tubes were agitated for one hour. The solutions were then placed in separate Centricon™ 30 molecular weight cutoff tubes and centrifuged for 30 minutes. The filtrate collected was analyzed for phosphorus by inductively coupled plasma spectroscopy.

Work on `O=C([O-])[O-].[Ca+2]` [calcium carbonate] yielded a phosphorus removed (pH 3, 10 mL 0.0207 M NaH2PO4, one hour) of 16%, a phosphorus removed (pH 4.5, 10 mL 0.0207 M NaH2PO4, one hour) of 13% and a phosphorus removed (pH 6, 10 mL 0.0207 M NaH2PO4, one hour) of 9%. For the same compound, the phosphorus removed (pH 7.5, 10 mL 0.0207 M NaH2PO4, one hour) was 7%.
